In ChEMBL document CHEMBL1201862, “PubChem BioAssay data set” (2004):
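Compound exposure: 48 hours, 5 concentrations, 96-well plates. Abbreviation: GI50, concentration required for 50% inhibition of growth.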 Activity calls are given as the source filed them. Rule as the data show it: active = GI50 up to about 1.1 µM and inactive = higher.

Tests used:
Assay in all cases: NCI tumour cell line growth inhibition, 48 h
UACC-62 = test system: UACC-62
CAKI-1 = test system: CAKI-1
DMS-114 = test system: DMS-114
OVCAR-4 = test system: OVCAR-4
M19-MEL = test system: M19-MEL
TK-10 = test system: TK-10
SF-268 = test system: SF-268
DLD-1 = test system: DLD-1
DMS-273 = test system: DMS-273
SF-539 = test system: SF-539
RXF 631 = test system: RXF 631
EKVX = test system: EKVX
COLO 205 = test system: COLO 205
U-251 = test system: U-251
SNB-78 = test system: SNB-78
SNB-75 = test system: SNB-75
786-0 = test system: 786-0
CCRF-CEM = test system: CCRF-CEM
UO-31 = test system: UO-31
HT-29 = test system: HT-29
Malme-3M = test system: Malme-3M
SNB-19 = test system: SNB-19
ACHN = test system: ACHN
HCT-116 = test system: HCT-116
HOP-18 = test system: HOP-18
SW-620 = test system: SW-620
KM12 = test system: KM12
NCI-H23 = test system: NCI-H23
HCT-15 = test system: HCT-15
SR = test system: SR
SK-MEL-5 = test system: SK-MEL-5
SK-MEL-28 = test system: SK-MEL-28
OVCAR-3 = test system: OVCAR-3
HCC 2998 = test system: HCC 2998
SF-295 = test system: SF-295
OVCAR-5 = test system: OVCAR-5
HOP-62 = test system: HOP-62
LXFL 529 = test system: LXFL 529
RPMI-8226 = test system: RPMI-8226
SK-OV-3 = test system: SK-OV-3
KM-20L2 = test system: KM-20L2
IGROV-1 = test system: IGROV-1
A498 = test system: A498
HL-60 = test system: HL-60
NCI-H522 = test system: NCI-H522
SK-MEL-2 = test system: SK-MEL-2
A549 = test system: A549
K562 = test system: K562
MOLT-4 = test system: MOLT-4
UACC-257 = test system: UACC-257
LOX IMVI = test system: LOX IMVI
NCI-H226 = test system: NCI-H226
NCI-H460 = test system: NCI-H460
HOP-92 = test system: HOP-92
SN12C = test system: SN12C
OVCAR-8 = test system: OVCAR-8
M14 = test system: M14
XF498 = test system: XF498
RXF 393 = test system: RXF 393

Measured: GI50

CC(=O)O[C@@H]1CC[C@@]2(C)C(=O)C34C[C@@]5(C)C([C@@H](C)CCCC(C)C)CCC5(C)[C@](O)(O3)C(=O)[C@H]4C2C1(C)C (stereo partly drawn)
inactive: UACC-62 18.2 µM | CAKI-1 14.7 µM | DMS-114 17.4 µM | OVCAR-4 13.2 µM | M19-MEL 13.8 µM | TK-10 16.6 µM | SF-268 15.8 µM | DLD-1 18 µM | DMS-273 13.4 µM | SF-539 19.3 µM | RXF 631 12.6 µM | EKVX 18.4 µM | COLO 205 14.5 µM | U-251 14.3 µM | SNB-78 20.8 µM | SNB-75 15.7 µM | 786-0 12.9 µM | CCRF-CEM 4.3 µM | UO-31 13.3 µM | HT-29 13 µM | Malme-3M 18.5 µM | SNB-19 16.6 µM | ACHN 14 µM | HCT-116 14 µM | HOP-18 15.8 µM | SW-620 11.5 µM | KM12 11.3 µM | NCI-H23 13.4 µM | SR 16 µM | SK-MEL-5 15 µM | SK-MEL-28 18.9 µM | OVCAR-3 12.3 µM | HCC 2998 11.3 µM | SF-295 16.3 µM | OVCAR-5 15.9 µM | HOP-62 17.7 µM | LXFL 529 16.7 µM | RPMI-8226 13.4 µM | SK-OV-3 18.3 µM | KM-20L2 17.4 µM | IGROV-1 15.4 µM | A498 22.2 µM | HL-60 10.2 µM | NCI-H522 12.3 µM | SK-MEL-2 19.8 µM | A549 13.3 µM | K562 9.42 µM | MOLT-4 7.74 µM | UACC-257 17 µM | LOX IMVI 15.6 µM | NCI-H226 15.7 µM | NCI-H460 6.04 µM | HOP-92 19.1 µM | SN12C 13.2 µM | OVCAR-8 16.5 µM | M14 13.1 µM
13.5 µM: HCT-15

CCCCCCCCCC(=O)N[C@H]1CCc2cc(OC)c(OC)c(OC)c2-c2ccc(SC)c(=O)cc21
active: UACC-62 0.0353 µM | CAKI-1 0.056 µM | DMS-114 0.0188 µM | OVCAR-4 0.408 µM | M19-MEL 0.0445 µM | TK-10 0.759 µM | SF-268 0.0223 µM | DLD-1 0.0352 µM | DMS-273 < 0.01 µM | SF-539 0.0224 µM | RXF 631 0.0197 µM | EKVX 0.0527 µM | COLO 205 0.00345 µM | U-251 0.0274 µM | SNB-78 0.0405 µM | SNB-75 0.0395 µM | 786-0 0.0393 µM | CCRF-CEM 0.0426 µM | UO-31 0.231 µM | HT-29 0.0261 µM | Malme-3M 0.0226 µM | SNB-19 0.0329 µM | ACHN 0.0507 µM | HCT-116 0.0209 µM | SW-620 0.0316 µM | KM12 0.0209 µM | NCI-H23 0.0216 µM | SR 0.0328 µM | SK-MEL-5 0.024 µM | OVCAR-3 0.0226 µM | HCC 2998 0.0247 µM | SF-295 0.0274 µM | XF498 0.022 µM | HOP-62 0.0478 µM | LXFL 529 0.0297 µM | RPMI-8226 0.0422 µM | SK-OV-3 0.0238 µM | KM-20L2 0.0198 µM | IGROV-1 0.0387 µM | A498 0.0255 µM | HL-60 0.034 µM | NCI-H522 < 0.01 µM | A549 0.0376 µM | K562 0.0395 µM | MOLT-4 0.0392 µM | UACC-257 0.0417 µM | RXF 393 0.0224 µM | LOX IMVI 0.043 µM | NCI-H226 0.0231 µM | NCI-H460 0.0347 µM | HOP-92 0.0168 µM | SN12C 0.0365 µM | OVCAR-8 0.0338 µM | M14 0.0226 µM
0.0313 µM: HCT-15
inactive: OVCAR-5 29.7 µM
